According to ChEMBL document CHEMBL1201862, “PubChem BioAssay data set” (2004):
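Exposure lasted 48 hours, with cells grown in 96-well plates and compounds tested at five concentrations. GI50 marks 50% less growth.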 Active and inactive are the calls of the source. Cut-off read from the data, not from the text of the source: active = GI50 up to about 1.1 µM and inactive = higher.

Columns and labels:
Experiment in all cases: growth of human tumour cells (NCI), 48 h
DMS-114 = system: DMS-114
RXF 631 = system: RXF 631
SNB-78 = system: SNB-78
XF498 = system: XF498
DU-145 = system: DU-145
Hs-578T = system: Hs-578T
MDA-MB-231 = system: MDA-MB-231
MDA-MB-435 = system: MDA-MB-435
PC-3 = system: PC-3

| Structure (SMILES) | GI50 (DMS-114) | GI50 (RXF 631) | GI50 (SNB-78) | GI50 (XF498) | GI50 (DU-145) | GI50 (Hs-578T) | GI50 (MDA-MB-231) | GI50 (MDA-MB-435) | GI50 (PC-3) |
| --- | --- | --- | --- | --- | --- | --- | --- | --- | --- |
| CCc1ccccc1NC(=O)c1cccc([N+](=O)[O-])c1O | 17.2 µM (inactive) | 23.7 µM (inactive) | 37.8 µM (inactive) | 20.4 µM (inactive) |  |  |  |  |  |
| CCC/C(=N\NC(=O)c1cc2ccccc2cc1O)C(CC)C(=O)CCC(=O)N(Cc1ccccc1)Cc1ccccc1 (centres undefined) | 26.3 µM (inactive) | 38.1 µM (inactive) | > 100 µM (inactive) |  |  |  |  |  |  |
| COC(=O)C(C#N)C1NC(=O)c2ccccc21 (centres undefined) | > 100 µM (inactive) | > 100 µM (inactive) | > 100 µM (inactive) |  |  |  |  |  |  |
| CCCN(CCCCC(NC(C)=O)C(=O)NCc1ccccc1)C(=O)NC (centres undefined) | > 100 µM (inactive) | > 100 µM (inactive) | > 100 µM (inactive) | > 100 µM (inactive) |  |  |  |  |  |
| CN(C)Cc1cc(/C(=C(\C#N)c2ccccc2)c2ccc(O)cc2)ccc1O | 15.1 µM (inactive) | 17.8 µM (inactive) | 32.1 µM (inactive) |  |  |  |  |  |  |
| Oc1cc(-n2cccn2)c(O)cc1-n1cccn1 | 26.4 µM (inactive) | > 60.8 µM (inactive) | 34.8 µM (inactive) | 16.3 µM (inactive) | > 48.2 µM (inactive) | > 100 µM (inactive) | 21.9 µM (inactive) | 17.5 µM (inactive) | 21.6 µM (inactive) |
| NNC(=O)N/N=C(/CC1(O)C(=O)Nc2ccc(Br)cc21)c1ccccc1 (centres undefined) |  | 38.6 µM (inactive) | 34.5 µM (inactive) | 18.9 µM (inactive) |  |  |  |  |  |
| O=C1OC(=O)C2C3C=CC(C12)C1C2C=CC2C31 (centres undefined) |  | > 100 µM (inactive) |  | 42.4 µM (inactive) |  |  |  |  |  |
| Cc1cccc(-n2c(=S)[nH]c3c(sc(=O)n3-c3ccccc3C)c2=O)c1 | > 100 µM (inactive) | > 100 µM (inactive) | > 100 µM (inactive) |  |  |  |  |  |  |
| O=C(N/N=C(\c1nc2ccc(Cl)cc2nc1O)C(O)c1ccccc1Cl)c1ccncc1 (centres undefined) | > 100 µM (inactive) | > 100 µM (inactive) |  |  |  |  |  |  |  |
| Cc1nc(-c2cccnc2)sc1C(=O)/C=C/c1cccc([N+](=O)[O-])c1 | > 100 µM (inactive) | > 100 µM (inactive) |  |  |  |  |  |  |  |
| O=C(Nc1ccc(C(F)(F)F)cc1[N+](=O)[O-])C(=O)Nn1c(S)nc2ccccc2c1=O | > 100 µM (inactive) | > 100 µM (inactive) | > 100 µM (inactive) | > 100 µM (inactive) |  |  |  |  |  |
| C=CCCC(OCOCCOC)c1cc(C)c(O[Si](C)(C)C(C)(C)C)c(C)c1 (centres undefined) | 11.7 µM (inactive) | 15.4 µM (inactive) | > 100 µM (inactive) |  |  |  |  |  |  |
| CN(C)CCC1(C2=CCCC2)CC/C(=C\c2ccccc2Cl)C1=O (centres undefined) | 12.2 µM (inactive) | 6.07 µM (inactive) | 12.4 µM (inactive) |  |  |  |  |  |  |
| BrC/C=C/C[P+](c1ccccc1)(c1ccccc1)c1ccccc1 | 27.5 µM (inactive) | > 100 µM (inactive) | 21 µM (inactive) | 11.1 µM (inactive) |  |  |  |  |  |
| CC1(C)OC(=O)C(c2ccsc2)C(=O)O1 | > 100 µM (inactive) | > 100 µM (inactive) | > 100 µM (inactive) | > 100 µM (inactive) |  |  |  |  |  |
| O=C(CC(=O)c1ccc([N+](=O)[O-])cc1)C(=O)Nc1nccs1 | > 40.5 µM (inactive) | > 100 µM (inactive) | > 100 µM (inactive) | > 100 µM (inactive) |  |  |  |  |  |
| COc1ccc(/C(Cl)=C(\C=O)c2ccc(Cl)cc2)cc1OC | 4.47 µM (inactive) | 3.69 µM (inactive) | 5.82 µM (inactive) |  |  |  |  |  |  |
| Cc1c(N)nc(C(CC(N)=O)NCC(N)C(N)=O)nc1C(=O)NC(C(=O)NC(C)C(O)C(C)C(=O)NC(C(=O)NCCc1nc(-c2nc(C(=O)NCCCNCCCCN)cs2)cs1)C(C)O)C(OC1OC(CO)C(O)C(O)C1OC1OC(CO)C(O)C(OC(N)=O)C1O)c1c[nH]cn1 (centres undefined) | 1.85 µM (inactive) | 0.0274 µM (active) | > 10 µM (inactive) | 0.0413 µM (active) |  |  |  |  |  |
| CCO/N=[N+](\[O-])N(CC)CC |  | > 100 µM (inactive) | > 100 µM (inactive) | > 100 µM (inactive) |  |  |  |  |  |
| CN(C)CCCNc1ccc2nnn3c4ccc([N+](=O)[O-])cc4c(=O)c1c23 | 1.89 µM (inactive) | 0.723 µM (active) | 2.08 µM (inactive) | 1.5 µM (inactive) | 1.71 µM (inactive) | 3.81 µM (inactive) | 0.274 µM (active) | 1.49 µM (inactive) | 1.28 µM (inactive) |
